Measured values published in patent US7282515B2, “Derivatives of azaspiro compounds for the treatment of pain” (Schwarz Pharma AG, priority 2002, dated 2007).

How the values were obtained:
NMRI mice = assay: formalin test (in-vivo test for analgesic effectiveness); design: key to Mean deviation of the pain reaction compared to control (%) 30–35′ after administration of formalin / Mean deviation of the pain reaction compared to control (%) 20–25′ after administration of formalin: (+): Intensified pain reaction
Experimental: (§1) In each case, the maximum dosage selected for the concentration of azaspiro compounds was held, by a factor of about 2, below the toxic dose previously determined in the IRWIN test (Irwin, Psychopharmacologia 13 (1968) 222).
A reduction in the pain reaction is expressed in negative percentage figures.
1. In-vivo Test for Determining the Analgesic Effectiveness of the Azaspiro Compounds
The test was conducted as described by Wheeler-Aceto (Psychopharmacology 104, 1991, 35).
NMRI mice having a weight of 20-25 g were kept under controlled conditions (22±2° C., 40-70% relative humidity). 25 μl of a 5% formocarbonyl solution was injected in the hind leg and the leg-licking frequency was then clocked for 5 minutes each at defined intervals (20, 30, 40 minutes).
Next, for the formalin test, the test substances were dissolved in a physiological salt solution with 0.5% sodium carboxymethyl cellulose and were each measured in 1-3 dosages that had been applied intraperitoneally 10 minutes before administration of formalin. The comparative reference value was provided by a control excipient (10 ml/kg).
The test was performed in blind fashion on 10 mice per test series. The evaluation was based on a comparison of the treated animals with control excipients at three different times. […] Accordingly, an average 50% reduction of the pain reaction for the treated animals is obtained when in a defined period (e.g. 30-35′ after the formalin injection) the leg-licking duration (averaged over the 10 test animals) is reduced by 50% compared to the untreated animals. The statistical significance was determined using the Mann-Whitney U-test.

[1] = IRWIN test (toxic dose / maximally tolerable dosage); assay type: in vivo
Experimental: as §1, with “FIG. 1 and Table 1 show the reaction of test animals 20-45 minutes after the intraperitoneal administration of selected compounds. In” for “In”
First, the highest possible non-toxic concentration of the respective test substances that could be used was determined by an IRWIN test (Irwin, Psychopharmacologia 13, 1968, 222).

[2] = 4 mg/kg i.p., Test series 2 (n = 10)
[3] = 16 mg/kg i.p., Test series 1 (n = 10)
[4] = 16 mg/kg i.p., Test series 2 (n = 10)
[5] = 32 mg/kg i.p., Test series 1 (n = 10)
[6] = 64 mg/kg i.p., Test series 1 (n = 10)
[7] = 64 mg/kg i.p., Test series 2 (n = 10)
[8] = 8 mg/kg i.p., Test series 1 (n = 10)
[9] = 8 mg/kg i.p., Test series 2 (n = 10)
[10] = 32 mg/kg i.p., Test series 2 (n = 10)
[11] = 32 mg/kg i.p., (n = 10), no test series named

Row | SMILES | Mean deviation of the pain reaction compared to control (%) 20–25′ after administration of formalin (NMRI mice; [3]) | Mean deviation of the pain reaction compared to control (%) 30–35′ after administration of formalin (NMRI mice; [3]) | Mean deviation of the pain reaction compared to control (%) 40–45′ after administration of formalin (NMRI mice; [3]) [%] | Mean deviation of the pain reaction compared to control (%) 20–25′ after administration of formalin (NMRI mice; [4]) [%] | Mean deviation of the pain reaction compared to control (%) 30–35′ after administration of formalin (NMRI mice; [4]) [%] | Mean deviation of the pain reaction compared to control (%) 40–45′ after administration of formalin (NMRI mice; [4]) [%] | Mean deviation of the pain reaction compared to control (%) 20–25′ after administration of formalin (NMRI mice; [5]) | Mean deviation of the pain reaction compared to control (%) 30–35′ after administration of formalin (NMRI mice; [5]) [%] | Mean deviation of the pain reaction compared to control (%) 40–45′ after administration of formalin (NMRI mice; [5]) [%] | Mean deviation of the pain reaction compared to control (%) 20–25′ after administration of formalin (NMRI mice; [6]) [%] | Mean deviation of the pain reaction compared to control (%) 30–35′ after administration of formalin (NMRI mice; [6]) [%] | Mean deviation of the pain reaction compared to control (%) 40–45′ after administration of formalin (NMRI mice; [6]) [%] | other results
1 | O=C1NC(=O)C2(CCCCC2)N1 [SPM 10011, 1,3-diazaspiro[4.5]decane-2,4-dion] | −75% | −11% | −55 | −84 | −21 | −34 | −82% | −64 | −64 | −100 | −100 | −80 | Mean deviation of the pain reaction compared to control (%) 20–25′ after administration of formalin (NMRI mice; [2]): −62%; Mean deviation of the pain reaction compared to control (%) 30–35′ after administration of formalin (NMRI mice; [2]): (+); Mean deviation of the pain reaction compared to control (%) 20–25′ after administration of formalin (NMRI mice; [7]): −100%; Mean deviation of the pain reaction compared to control (%) 30–35′ after administration of formalin (NMRI mice; [7]): −100%; Mean deviation of the pain reaction compared to control (%) 40–45′ after administration of formalin (NMRI mice; [7]): −97%
2 | O=C1CC2(CCCCC2)CN1 [GPL, 2-azaspiro[4.5]decan-3-on, reference compound] | (+) | (+) | – | −74 | −40 | −41 | (+) | −10 | – | – | – | – | Mean deviation of the pain reaction compared to control (%) 20–25′ after administration of formalin (NMRI mice; [8]): (+); Mean deviation of the pain reaction compared to control (%) 30–35′ after administration of formalin (NMRI mice; [8]): (+); Mean deviation of the pain reaction compared to control (%) 20–25′ after administration of formalin (NMRI mice; [9]): −58%; Mean deviation of the pain reaction compared to control (%) 30–35′ after administration of formalin (NMRI mice; [9]): −18%; Mean deviation of the pain reaction compared to control (%) 40–45′ after administration of formalin (NMRI mice; [9]): −15%; Mean deviation of the pain reaction compared to control (%) 20–25′ after administration of formalin (NMRI mice; [10]): −64%; Mean deviation of the pain reaction compared to control (%) 30–35′ after administration of formalin (NMRI mice; [10]): −15%; Mean deviation of the pain reaction compared to control (%) 40–45′ after administration of formalin (NMRI mice; [10]): −46%; side effects above the maximally tolerable dosages (sedation, tremor, hypothermia) [1]: significant lethality rate
3 | S=C1NC(=S)C2(CCCCC2)N1 [SPM 10013, 1,3-diazaspiro[4.5]decane-2,4-dithion] | −60% | −14% | −49 | – | – | – | −82% | −60 | −30 | −98 | −95 | −78 | –
4 | O=C1NCC2(CCCCC2)N1 [SPM 10019, 1,3-diazaspiro[4.5]decane-2-on] | – | – | – | – | – | – | – | – | – | – | – | – | Mean deviation of the pain reaction compared to control (%) 20–25′ after administration of formalin (NMRI mice; [11]): −52%; Mean deviation of the pain reaction compared to control (%) 40–45′ after administration of formalin (NMRI mice; [11]): −40%
